The target of assay [1] is T1, human α1A adrenergic receptor (Homo sapiens, UniProt P35348).
T1 construct: expressed in transfected cells; host or cells: Xenopus laevis oocytes, mRNA-injected
T1 sequence (P35348 1-466): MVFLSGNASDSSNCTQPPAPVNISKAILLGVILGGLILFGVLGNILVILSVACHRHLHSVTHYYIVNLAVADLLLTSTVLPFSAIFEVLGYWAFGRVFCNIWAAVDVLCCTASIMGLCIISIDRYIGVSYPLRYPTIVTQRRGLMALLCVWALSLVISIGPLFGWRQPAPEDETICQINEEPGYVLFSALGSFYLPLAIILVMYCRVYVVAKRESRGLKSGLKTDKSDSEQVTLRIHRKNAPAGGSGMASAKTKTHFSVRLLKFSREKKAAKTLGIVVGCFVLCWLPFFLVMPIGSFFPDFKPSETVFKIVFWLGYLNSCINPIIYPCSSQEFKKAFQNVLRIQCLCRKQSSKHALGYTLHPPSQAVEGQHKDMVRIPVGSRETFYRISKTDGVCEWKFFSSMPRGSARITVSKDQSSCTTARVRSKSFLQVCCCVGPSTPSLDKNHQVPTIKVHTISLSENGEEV
It counts as cell-based. The procedure: FIG. 7 Pertussis toxin sensitivity of GalR3 and GalR1 stimulation of GIRK currents. […] . Number of observations appears in parenthesis below the x-axis. Apparent absence of a bar indicates an amplitude of 0 (no response above baseline).
5′-[…] […]-3′ (SEQ ID NO. 59). […] The new plasmid was designated M52.
Experiments were carried out at room temperature.

A further assay has as its target T2, Hum GALR1 (Homo sapiens, UniProt P47211).
T2 sequence (P47211 1-349): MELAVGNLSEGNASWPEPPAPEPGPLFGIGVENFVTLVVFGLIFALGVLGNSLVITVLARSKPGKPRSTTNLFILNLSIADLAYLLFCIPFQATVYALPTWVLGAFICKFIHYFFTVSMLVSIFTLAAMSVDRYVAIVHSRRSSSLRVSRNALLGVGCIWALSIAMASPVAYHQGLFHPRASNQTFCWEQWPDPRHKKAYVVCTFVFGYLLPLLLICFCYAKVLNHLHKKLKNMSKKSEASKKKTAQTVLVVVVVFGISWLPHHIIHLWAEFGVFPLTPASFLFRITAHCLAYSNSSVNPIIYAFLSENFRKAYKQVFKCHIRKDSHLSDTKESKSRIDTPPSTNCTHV
In words: porcine 125I-galanin binding assay, Hum GALR1 LM(tk-). Conditions: Table 10.

Assay [2] has as its target T3, rat GALR3 (Rattus norvegicus, UniProt O88626).
T3 sequence (O88626 1-370): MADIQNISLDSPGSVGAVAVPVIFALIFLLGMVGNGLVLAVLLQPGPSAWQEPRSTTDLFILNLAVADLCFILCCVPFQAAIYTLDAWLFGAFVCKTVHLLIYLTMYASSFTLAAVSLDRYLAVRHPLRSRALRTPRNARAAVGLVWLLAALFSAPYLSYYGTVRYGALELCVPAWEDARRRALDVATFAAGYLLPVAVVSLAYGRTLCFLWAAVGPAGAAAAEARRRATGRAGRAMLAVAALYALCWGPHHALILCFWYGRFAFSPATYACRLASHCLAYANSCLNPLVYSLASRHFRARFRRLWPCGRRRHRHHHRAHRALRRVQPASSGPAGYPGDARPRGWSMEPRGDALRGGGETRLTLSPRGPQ
In words: porcine 125I-galanin binding, membranes of stable cell line 293-rGalR3-105. The conditions noted are these: Ki (nM) Rat GALR3 293 #105, Table 9. Details: which comprises the entire coding region of rat GALR3; expressed in transfected cells.

Another assay addresses T4, rat GALR1 (Rattus norvegicus, UniProt Q62805).
T4 construct: expressed in transfected cells; host or cells: CHO
T4 sequence (Q62805 1-346): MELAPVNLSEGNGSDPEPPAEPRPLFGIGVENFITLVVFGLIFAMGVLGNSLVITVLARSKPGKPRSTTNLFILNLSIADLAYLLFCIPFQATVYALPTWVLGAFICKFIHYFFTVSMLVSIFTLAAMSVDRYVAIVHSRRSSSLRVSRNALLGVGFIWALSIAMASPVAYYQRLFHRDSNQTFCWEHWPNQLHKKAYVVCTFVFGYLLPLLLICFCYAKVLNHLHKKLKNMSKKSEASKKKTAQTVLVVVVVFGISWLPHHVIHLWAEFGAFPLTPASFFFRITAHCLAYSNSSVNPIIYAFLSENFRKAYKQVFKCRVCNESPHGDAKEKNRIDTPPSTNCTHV
The experiment in a line: biochemical. The conditions noted are these: Table 9; read-out: Ki (nM) Rat GalR1 CHO. It counts as binding.

Another assay has as its target T5, Hum GALR2 (Homo sapiens, UniProt O43603).
T5 construct: expressed in transfected cells; host or cells: CHO
T5 sequence (O43603 1-387): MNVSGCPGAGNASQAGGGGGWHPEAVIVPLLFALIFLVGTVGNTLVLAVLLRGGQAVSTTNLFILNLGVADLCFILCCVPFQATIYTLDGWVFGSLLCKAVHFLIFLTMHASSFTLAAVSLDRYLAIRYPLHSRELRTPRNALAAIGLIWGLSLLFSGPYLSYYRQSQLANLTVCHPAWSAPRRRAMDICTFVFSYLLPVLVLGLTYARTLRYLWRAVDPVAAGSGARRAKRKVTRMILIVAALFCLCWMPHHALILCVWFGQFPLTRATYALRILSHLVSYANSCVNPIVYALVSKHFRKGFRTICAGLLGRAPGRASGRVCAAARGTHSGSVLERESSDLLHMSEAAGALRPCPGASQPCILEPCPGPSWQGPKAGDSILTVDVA
In words: porcine 125I-galanin binding assay, Hum GALR2 CHO.

For a further assay, the target named is T6, rat GALR2 (Rattus norvegicus, UniProt O08726).
T6 construct: expressed in transfected cells
T6 sequence (O08726 1-372): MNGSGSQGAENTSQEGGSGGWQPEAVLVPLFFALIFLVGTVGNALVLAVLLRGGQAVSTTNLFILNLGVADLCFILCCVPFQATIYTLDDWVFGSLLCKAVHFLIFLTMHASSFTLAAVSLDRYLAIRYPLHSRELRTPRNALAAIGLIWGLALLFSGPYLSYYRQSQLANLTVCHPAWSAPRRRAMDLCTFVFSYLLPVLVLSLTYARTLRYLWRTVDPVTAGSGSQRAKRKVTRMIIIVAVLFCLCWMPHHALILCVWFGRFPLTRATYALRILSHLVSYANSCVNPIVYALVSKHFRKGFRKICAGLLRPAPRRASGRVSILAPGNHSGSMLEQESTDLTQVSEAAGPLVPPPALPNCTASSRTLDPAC
The experiment in a line: porcine 125I-galanin binding assay, Rat GALR2 LMTK #4.

The target in assay [3] is T7, human GALR3 (Homo sapiens, UniProt O60755).
T7 construct: The full-length human GALR3 gene contains 1107 bp within its coding region, encoding for a predicted protein of 368 aa; expressed in transfected cells
T7 sequence (O60755 1-368): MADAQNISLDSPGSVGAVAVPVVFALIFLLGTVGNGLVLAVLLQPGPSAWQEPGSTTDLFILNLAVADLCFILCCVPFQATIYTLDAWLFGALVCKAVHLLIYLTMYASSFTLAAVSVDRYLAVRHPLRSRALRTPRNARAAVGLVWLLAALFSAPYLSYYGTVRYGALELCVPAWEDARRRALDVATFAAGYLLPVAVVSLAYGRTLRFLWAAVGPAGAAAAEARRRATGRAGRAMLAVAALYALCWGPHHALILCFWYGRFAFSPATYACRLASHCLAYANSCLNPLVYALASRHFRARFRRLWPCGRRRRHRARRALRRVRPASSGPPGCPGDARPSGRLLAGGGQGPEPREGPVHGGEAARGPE
The experiment in a line: porcine 125I-galanin binding, LM(tk-) cells stably expressing human GALR3 (L-hGalR3-228).

The target in assay [4] is T3, rat GALR3. In words: porcine 125I-galanin binding, rat GALR3 transiently expressed in COS-7 cell membranes. Details: which comprises the entire coding region of rat GALR3; expressed in transfected cells; host or cells: COS-7, transient. The conditions noted are these: peptide displacement assays.
Experimental: Assays were conducted at room temperature for 120 minutes, and leupeptin, aprotonin and phosphoramidon were omitted from the rat GALR3 assay, while bacitracin was added to 0.1%.
Assay [5] in a line: food intake after intracerebroventricular injection in rats. The conditions noted are these: injected i.c.v.
Experimental: Measurement of food intake was performed for 3 hours after injection, but other protocols may also be used. Saline was injected as a control, but it is understood that other vehicles may be required as controls for some peptides and compounds. […] A preferred anatomic location for injection is the hypothalamus, in particular, the paraventricular nucleus.
In assay [6] the target is T7, human GALR3. In words: voltage clamp currents in Xenopus oocytes expressing hGALR3 and GIRK1/GIRK4. It counts as cell-based.
Experimental: Activation of inwardly rectifying currents that are sensitive to 300 μM Ba^++ signifies GALR3 coupling to a Gαi or Gαo pathway in the oocytes.
Oocytes were isolated as described above, except that 3 mg/mL collagenase was used to defolliculate the oocytes.
Where [7] appears, read: Ki (nM) Hum GALR3 LMTK− #8, Table 10.

Consider `CNC[C@H](O)c1ccc(O)c(O)c1` [epinephrine], for which, in assay [1], the “Cl− currents in oocytes expressing α1a receptors” value is “stimulates transient Cl^− currents”.
On to `CC[C@H](C)[C@H](NC(=O)[C@H](C)NC(=O)[C@H](Cc1c[nH]cn1)NC(=O)[C@@H]1CCCN1C(=O)CNC(=O)[C@H](CC(C)C)NC(=O)[C@H](CC(C)C)NC(=O)[C@H](Cc1ccc(O)cc1)NC(=O)CNC(=O)[C@H](C)NC(=O)[C@H](CO)NC(=O)[C@H](CC(N)=O)NC(=O)[C@H](CC(C)C)NC(=O)[C@@H](NC(=O)[C@H](Cc1c[nH]c2ccccc12)NC(=O)CNC(=O)[C@H](CCCNC(=N)N)NC(=O)[C@H](CCCCN)NC(=O)[C@H](CCC(=O)O)NC(=O)[C@H](CCCCN)NC(=O)[C@@H](NC(=O)[C@@H]1CCCN1C(=O)[C@H](CO)NC(=O)CNC(=O)[C@@H](N)CC(C)C)C(C)C)[C@@H](C)O)C(=O)N[C@@H](CC(=O)O)C(=O)N[C@@H](CC(N)=O)C(=O)N[C@@H](Cc1c[nH]cn1)C(=O)N[C@@H](CCCNC(=N)N)C(=O)N[C@@H](CO)C(=O)N[C@@H](Cc1ccccc1)C(=O)N[C@@H](Cc1c[nH]cn1)C(=O)N[C@@H](CC(=O)O)C(=O)N[C@@H](CCCCN)C(=O)N[C@@H](Cc1ccc(O)cc1)C(=O)NCC(=O)N[C@@H](CC(C)C)C(=O)N[C@@H](C)C(N)=O` [(−)9 to (+)29 galanin, porcine], for which the Ki on Hum GALR1 amounted to 7.85 nM; at rat GALR3 [2] it was 4.17 nM; at rat GALR1 it was 51.3 nM; at Hum GALR2, 0.00543 µM; on rat GALR2, 0.00347 µM; on human GALR3 [3] (setting [7]) it was 50.1 nM.
Consider `CC[C@H](C)[C@H](NC(=O)[C@H](C)NC(=O)[C@H](Cc1c[nH]cn1)NC(=O)[C@@H]1CCCN1C(=O)CNC(=O)[C@H](CC(C)C)NC(=O)[C@H](CC(C)C)NC(=O)[C@H](Cc1ccc(O)cc1)NC(=O)CNC(=O)[C@H](C)NC(=O)[C@H](CO)NC(=O)[C@H](CC(N)=O)NC(=O)[C@H](CC(C)C)NC(=O)[C@@H](NC(=O)[C@H](Cc1c[nH]c2ccccc12)NC(=O)CNC(=O)[C@H](CCCNC(=N)N)NC(=O)[C@H](CCCCN)NC(=O)[C@H](CCC(=O)O)NC(=O)[C@H](CCCCN)NC(=O)[C@@H](NC(=O)[C@@H]1CCCN1C(=O)[C@@H](N)CO)C(C)C)[C@@H](C)O)C(=O)N[C@@H](CC(=O)O)C(=O)N[C@@H](CC(N)=O)C(=O)N[C@@H](Cc1c[nH]cn1)C(=O)N[C@@H](CCCNC(=N)N)C(=O)N[C@@H](CO)C(=O)N[C@@H](Cc1ccccc1)C(=O)N[C@@H](Cc1c[nH]cn1)C(=O)N[C@@H](CC(=O)O)C(=O)N[C@@H](CCCCN)C(=O)N[C@@H](Cc1ccc(O)cc1)C(=O)NCC(=O)N[C@@H](CC(C)C)C(=O)N[C@@H](C)C(N)=O` [galanin −7 to +29, (−7) to (+29) galanin, porcine], for which the Ki came to 6.84 nM on Hum GALR1; 36.3 nM at rat GALR1; 0.00495 µM on Hum GALR2; 0.00316 µM on rat GALR2; 28.8 nM on human GALR3 [3] (setting [7]); 29 nM at human GALR3 [3] (Ki (nM) Human L-hGalR3-228, Table 5, stable). The Ki at human GALR3 [3] (human GALR3LM (tk−) Ki (nM), Table 8) came out at 28.8 nM. For the same compound, the “binding affinity for rat GALR3 in words” value on rat GALR3 [4] is recorded as “affinity comparable to that for porcine galanin”. The “feeding / food intake in words” value in assay [5] is “induces feeding”. Besides, the EC50 on human GALR3 [6] amounted to 1.91 µM. The “agonist activity at human GALR3 in oocytes” value on human GALR3 [6] was “evoked agonist activity”.
`CC[C@H](C)[C@H](NC(=O)[C@H](C)NC(=O)[C@H](Cc1c[nH]cn1)NC(=O)[C@@H]1CCCN1C(=O)CNC(=O)[C@H](CC(C)C)NC(=O)[C@H](CC(C)C)NC(=O)[C@H](Cc1ccc(O)c(I)c1)NC(=O)CNC(=O)[C@H](C)NC(=O)[C@H](CO)NC(=O)[C@H](CC(N)=O)NC(=O)[C@H](CC(C)C)NC(=O)[C@@H](NC(=O)[C@@H](Cc1c[nH]c2ccccc12)NC(=O)CN)[C@@H](C)O)C(=O)N[C@@H](CC(=O)O)C(=O)N[C@@H](CC(N)=O)C(=O)N[C@@H](Cc1c[nH]cn1)C(=O)N[C@@H](CCCNC(=N)N)C(=O)N[C@@H](CO)C(=O)N[C@@H](Cc1ccccc1)C(=O)N[C@@H](Cc1c[nH]cn1)C(=O)N[C@@H](CC(=O)O)C(=O)N[C@@H](CCCCN)C(=O)N[C@@H](Cc1ccc(O)c(I)c1)C(=O)NCC(=O)N[C@@H](CC(C)C)C(=O)N[C@@H](C)C(N)=O` [D-Trp2-(d-iodo-L-Tyr9)-(3-iodo-L-Tyr26)-galanin]: the results for the Ki on rat GALR3 [2] and on human GALR3 [3] (setting [7]) were 182 nM and 933 nM, respectively.

The values are drawn from patent US6368812B1 (priority 1996, dated 2002).
